Experimental data: the supplement of paper PMC10307832

Columns and labels:
Assay in all cases: relative viability (nuclei count vs DMSO), 5 days (fraction); higher = more cells survive
201T = tested on: 201T
Procedure, shortened: (§1)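 Lung cancer cell lines were pin-tool dosed in 1536-well plates on the day after seeding, with either a lone drug or a fixed anchor-drug dose plus five library-drug doses (not always all listed) in √10 steps. Nuclei were counted on 4× images after 5 days. Relative viability is the ratio of treated-well to vehicle-well nuclei counts, with each value a median of duplicate plates.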

A-427 = tested on: A-427
Procedure, shortened: as §1

BEN = tested on: BEN
Procedure, shortened: as §1

COR-L23 = tested on: COR-L23
Procedure, shortened: as §1

EKVX = tested on: EKVX
Procedure, shortened: as §1

HARA = tested on: HARA
Procedure, shortened: as §1

HCC-15 = tested on: HCC-15
Procedure, shortened: as §1

HCC-44 = tested on: HCC-44
Procedure, shortened: as §1

HCC-827 = tested on: HCC-827
Procedure, shortened: as §1

NCI-H1437 = tested on: NCI-H1437
Procedure, shortened: as §1

NCI-H1650 = tested on: NCI-H1650
Procedure, shortened: as §1

O=c1cc(N2CCOCC2)oc2c(-c3cccc4c3sc3ccccc34)cccc12 + CC(=O)c1c(C)c2cnc(Nc3ccc(N4CCNCC4)cn3)nc2n(C2CCCC2)c1=O [Palbociclib] (partner 0.5 µM)
relative viability (201T; first compound 0.01 µM): 0.346 | relative viability (201T; first compound 0.03162 µM): 0.356 | relative viability (201T; first compound 0.1 µM): 0.356 | relative viability (201T; first compound 0.3162 µM): 0.342 | relative viability (201T; first compound 1 µM): 0.353 | relative viability (A-427; first compound 0.01 µM): 0.533 | relative viability (A-427; first compound 0.03162 µM): 0.52 | relative viability (A-427; first compound 0.1 µM): 0.528 | relative viability (A-427; first compound 0.3162 µM): 0.508 | relative viability (A-427; first compound 1 µM): 0.513 | relative viability (BEN; first compound 0.01 µM): 0.427 | relative viability (BEN; first compound 0.03162 µM): 0.476 | relative viability (BEN; first compound 0.1 µM): 0.476 | relative viability (BEN; first compound 0.3162 µM): 0.514 | relative viability (BEN; first compound 1 µM): 0.506 | relative viability (COR-L23; first compound 0.01 µM): 0.289 | relative viability (COR-L23; first compound 0.03162 µM): 0.303 | relative viability (COR-L23; first compound 0.1 µM): 0.317 | relative viability (COR-L23; first compound 0.3162 µM): 0.301 | relative viability (COR-L23; first compound 1 µM): 0.316 | relative viability (EKVX; first compound 0.01 µM): 0.376 | relative viability (EKVX; first compound 0.03162 µM): 0.363 | relative viability (EKVX; first compound 0.1 µM): 0.484 | relative viability (EKVX; first compound 0.3162 µM): 0.43 | relative viability (EKVX; first compound 1 µM): 0.332 | relative viability (HARA; first compound 0.01 µM): 0.253 | relative viability (HARA; first compound 0.03162 µM): 0.252 | relative viability (HARA; first compound 0.1 µM): 0.201 | relative viability (HARA; first compound 0.3162 µM): 0.278 | relative viability (HARA; first compound 1 µM): 0.307 | relative viability (HCC-15; first compound 0.01 µM): 0.73 | relative viability (HCC-15; first compound 0.03162 µM): 0.709 | relative viability (HCC-15; first compound 0.1 µM): 0.891 | relative viability (HCC-15; first compound 0.3162 µM): 0.624 | relative viability (HCC-15; first compound 1 µM): 0.727 | relative viability (HCC-44; first compound 0.01 µM): 1.01 | relative viability (HCC-44; first compound 0.03162 µM): 1.02 | relative viability (HCC-44; first compound 0.1 µM): 0.955 | relative viability (HCC-44; first compound 0.3162 µM): 0.991 | relative viability (HCC-44; first compound 1 µM): 1.02 | relative viability (HCC-827; first compound 0.01 µM): 0.52 | relative viability (HCC-827; first compound 0.03162 µM): 0.485 | relative viability (HCC-827; first compound 0.1 µM): 0.457 | relative viability (HCC-827; first compound 0.3162 µM): 0.53 | relative viability (HCC-827; first compound 1 µM): 0.47 | relative viability (NCI-H1437; first compound 0.01 µM): 0.3 | relative viability (NCI-H1437; first compound 0.03162 µM): 0.312 | relative viability (NCI-H1437; first compound 0.1 µM): 0.282 | relative viability (NCI-H1437; first compound 0.3162 µM): 0.31 | relative viability (NCI-H1437; first compound 1 µM): 0.281 | relative viability (NCI-H1650; first compound 0.01 µM): 0.299 | relative viability (NCI-H1650; first compound 0.03162 µM): 0.363 | relative viability (NCI-H1650; first compound 0.1 µM): 0.346
